Tested on: Mycobacterium tuberculosis
Assay: Antimycobacterial activity against Mycobacterium tuberculosis H37Rv
Assay type: functional
Details: Mycobacterium tuberculosis, H37Rv; read-out: MIC

| Compound | MIC |
| --- | --- |
| c1cc2c[n+](c1)CCCCCCCCCCCCCc1ccc[n+](c1)CCCCCCCCCCCC2 [CYCLOSTELLETAMINES B] | 4 µg/mL |
| O=C1C2=C(C(=O)c3c(O)cccc31)[C@]1(O)C[C@H]2C(=O)c2c(O)cccc21 [ENGELHARQUINONE] | 20 µg/mL |
| CCc1cc(C(N)=S)ccn1 [ETHIONAMIDE] | 18 µM |
| [C-]#[N+]C(C)(C)C[C@@H]1C[C@H](C)[C@H]2CC[C@H](C)[C@@]3([N+]#[C-])CCC(=C)[C@@H]1[C@H]23 [DIISOCYANOAMPHILECTENE] | 2 µg/mL |
| c1cc2c[n+](c1)CCCCCCCCCCCCCCc1ccc[n+](c1)CCCCCCCCCCCCC2 [CYCLOSTELLETAMINES E] | 11 µg/mL |
| CC1=C(C)C(=O)C(CC[C@](C)(O)CCC[C@H](C)CCC[C@H](C)CCCC(C)C)=C(C)C1=O | 25 µg/mL |
| O=C1c2c(O)ccnc2-c2nccc3c2c1nc1ccccc13 | 42 µM |
| c1cc2c[n+](c1)CCCCCCCCCCCCCCc1ccc[n+](c1)CCCCCCCCCCCC2 [CYCLOSTELLETAMINES D] | 8 µg/mL |
| C=C(C)/C=C/[C@@]12C(=O)C=CC(=O)[C@@]13CC(C)=C[C@@H]2c1cc(O)ccc1O3 [EHRETIQUINONE] | 25 µg/mL |
| CC1(C)Oc2cc(O)c(C(=O)/C=C/c3ccccc3)c(O)c2CC1O (stereo not drawn) | 0.05 µg/mL |
| CC(C)=CCc1c(O)cc(O)c(C(=O)/C=C/c2ccccc2)c1O | 0.05 µg/mL |
| CC(=O)[C@]1(O)C(C)=C(C)C(=O)[C@@]12CC[C@](C)(CCC[C@H](C)CCC[C@H](C)CCCC(C)C)O2 | 30 µg/mL |
| COc1cc(-c2ccc3c(c2)OCO3)nc2ccccc12 [GRAVEOLININE] | 16 µg/mL |
| CC(=O)NCCc1c2c3c(ccnc3c3ncsc13)-c1ccccc1N2 [KUANONIAMINE D] | 34 µM |
| COc1cc(/C=C/C(O)=C/C(=O)/C=C/c2ccc(O)cc2)ccc1O [DEMETHOXYCURCUMIN] | 200 µg/mL |
| NC1=N[C@@]23CCCN2C(=O)c2[nH]cc(Br)c2[C@@H]3N1 [MONOBROMOISOPHAKELLIN] | 64 µg/mL |
| COc1ccc(CC(O)C(O)Cc2ccccc2)cc1 (stereo not drawn) | 30 µg/mL |

| Compound | MIC |
| --- | --- |
| CC(C)C1=C(O)C(=O)C2=C(C=C[C@H]3C(C)(C)CCC[C@]23C)C1=O | 25 µg/mL |
| C[C@@H]1C[C@H](C)C(=O)/C=C/C2[C@@H](O)C3OC4=C(C(=O)O[C@@]42C[C@H]3C)C1=O (single isomer, unassigned; (-)) | 7.2 µM |
| CC(=O)[C@]1(O)C(C)=C(C)C(=O)[C@@]12CC[C@H](CCC[C@H](C)CCC[C@H](C)CCCC(C)C)O2 | 50 µg/mL |
| COc1cc2ccc(=O)oc2cc1O [SCOPOLETIN] | 42 µg/mL |
| CC(=O)NCCc1c2c(c3nccc4c3c1Nc1ccccc1-4)NC(=O)CS2 [SHERMILAMINE B] | 32 µM |
| CSC1=C(CCNC(C)=O)c2nc3ccccc3c3ccnc(c23)C1=O [DIPLAMINE] | 17 µM |
| CC(C)=CCc1c(O)ccc(C(=O)/C=C/c2ccc(O)cc2)c1O [ISOBAVACHALCONE] | 18 µg/mL |
| CSc1cnc2c3c(nc4ccccc4c13)C(CCNC(C)=O)=CC2=O [ISODIPLAMINE] | 17 µM |
| O=C(O)CCCCCCCCCCCC[C@@H]1C=CCC1 [CHAULMOOGRIC ACID] | 16.8 µM |
| c1cc2c[n+](c1)CCCCCCCCCCCCCCc1ccc[n+](c1)CCCCCCCCCCCCCC2 [CYCLOSTELLETAMINES F] | 8 µg/mL |
| COc1cc(-c2ccccc2)nc2ccccc12 | 16 µg/mL |
| C/C=C(/NC(=O)c1csc(-c2csc(-c3ccc4c(n3)-c3csc(n3)C(C(C)(O)C(C)O)NC(=O)c3csc(n3)C(C(C)C)NC(=O)c3csc(n3)/C(=C/OC)NC(=O)C(C(C)O)NC(=O)c3csc-4n3)n2)n1)C(=O)OC (stereo not drawn) [NOCARDITHIOCIN] | 0.025 µg/mL |
| O=C(O)CCCCCCCCCC(=O)C1=CCCC1 [ANTHELMINTHICINS A] | 5.54 µM |
| c1cc2c[n+](c1)CCCCCCCCCCCCc1ccc[n+](c1)CCCCCCCCCCCC2 [CYCLOSTELLETAMINES A] | 32 µg/mL |
| CCOC(=O)/C=C/COc1ccc(/C=C/C(=O)/C=C(O)/C=C/c2ccc(OC/C=C/C(=O)OCC)c(OC)c2)cc1 | 7.18 µg/mL |
| CC(C)C1=C(O)C(=O)C2=C(C1=O)[C@H](O)[C@@H](O)[C@H]1C(C)(C)CCC[C@]21C | 25 µg/mL |

— ChEMBL document CHEMBL2203104, “Recent advances in antitubercular natural products” (Eur J Med Chem, 2012)
